Measurements taken from patent US7626021B2, “Fused ring heterocycle kinase modulators” (SGX Pharmaceuticals, Inc., priority 2004, dated 2009).

Molecular target: T1, PDK1 kinase (Homo sapiens, UniProt O15530)
T1 construct: 6x Histidine tag (TEV-cleavable) (cleaved yes); made in house; host or cells: Sf9 insect cells
T1 sequence (O15530 1-556): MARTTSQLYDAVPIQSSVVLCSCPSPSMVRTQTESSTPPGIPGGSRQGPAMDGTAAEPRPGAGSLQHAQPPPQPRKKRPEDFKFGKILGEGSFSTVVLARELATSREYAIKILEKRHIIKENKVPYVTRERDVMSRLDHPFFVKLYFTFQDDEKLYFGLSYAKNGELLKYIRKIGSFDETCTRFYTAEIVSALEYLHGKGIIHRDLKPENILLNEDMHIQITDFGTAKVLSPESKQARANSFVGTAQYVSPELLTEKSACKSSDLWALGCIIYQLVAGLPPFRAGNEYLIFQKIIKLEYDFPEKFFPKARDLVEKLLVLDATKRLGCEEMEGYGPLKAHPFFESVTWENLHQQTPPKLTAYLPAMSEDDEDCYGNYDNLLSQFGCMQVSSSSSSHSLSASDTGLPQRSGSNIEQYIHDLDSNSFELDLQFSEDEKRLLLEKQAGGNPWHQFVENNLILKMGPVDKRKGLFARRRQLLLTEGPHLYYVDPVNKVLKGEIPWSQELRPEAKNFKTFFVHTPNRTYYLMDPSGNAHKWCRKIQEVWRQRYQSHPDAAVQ
Assay: PDK1 luminescence-based enzyme assay (Kinase-Glo)
Assay type: biochemical
Conditions: not given
Description: In addition to the c-Abl PK/LDH coupled assay (above), homogeneous luminescence-based inhibitor screening assays were developed for c-Abl, MET, AurA, and PDK1 kinases (among others). Each of these assays made use of an ATP depletion assay (Kinase-Glo™, Promega Corporation, Madison, Wis.) to quantitate kinase activity. The Kinase-Glo™ format uses a thermostable luciferase to generate luminescent signal from ATP remaining in solution following the kinase reaction. The luminescent signal is inversely correlated with the amount of kinase activity.
PDK1 Luminescence-Based Enzyme Assay
Standard Assay Setup for 384-well format (20 μl kinase reaction, 40 μl detection reaction): 10 mM MgCl2; 0.01 mM PDKtide; 1 μl test compound (in DMSO); 0.1 μg/ml PDK1 kinase; 5 μM ATP; 1 mM MgCl2; 100 mM HEPES+0.01% Brij buffer. Positive controls contained DMSO with no test compound. Negative controls contained 10 μM staurosporine. The kinase reactions were initiated at time t=0 by the addition of ATP. Kinase reactions were incubated at 21° C. for 40 min, then 20 μl of Kinase-Glo™ reagent were added to each well to quench the kinase reaction and initiate the luminescence reaction. After a 20 min incubation at 21° C., the luminescence was detected in a plate-reading luminometer.

IC50 [nM]	Structure (SMILES)
1000 to 10000	COc1ccccc1-c1n[nH]c2ncc(-c3ccc(C(=O)N4CCOCC4)cc3)cc12
1000 to 10000	COc1ccccc1-c1n[nH]c2ncc(-c3ccc(C(=O)N4CCCCC4)cc3)cc12
1000 to 10000	COc1ccccc1-c1n[nH]c2ncc(-c3ccc(C(=O)N4CCCC4)cc3)cc12
1000 to 10000	COc1cc(-c2cnc3[nH]nc(-c4ccccc4)c3c2)ccc1O
1000 to 10000	COc1ccccc1-c1n[nH]c2ncc(-c3ccc(C(=O)N4CCN(C)CC4)cc3)cc12

Same assay, conditions: read-out: PDK1 IC50

IC50 [nM]	Structure (SMILES)
1000 to 10000	COc1cc(-c2cnc3[nH]cc(-c4ccc(C)cc4)c3n2)ccc1O

System: Ba/F3 cells transfected with T315I BCR-ABL
Assay: BCR-ABL phospho-ELISA in T315I cells or Ba/F3 T315I proliferation (XTT)
Assay type: cell-based
Conditions: Mus musculus, BaF3, phospho-ELISA or 72 h XTT proliferation, read-out: P_ELISA_[T3151l_Cells] or Ba/F3 T315l proliferation (XTT)
Description: MV4-11 and THP cells were maintained in Iscove's Modified Dulbecco's Medium supplemented with 10% fetal bovine serum (FBS) and penicillin/streptomycin, Ba/F3 cells were maintained in RPMI 1640 supplemented with 10% FBS, penicillin/streptomycin and 5 ng/ml recombinant mouse IL-3.
Compounds were tested in the following assays in duplicate.
96-well XTT assay: Cells were grown in growth media containing various concentrations of compounds (duplicates) on a 96-well plate for 72 hours at 37° C. The starting cell number was 5000-8000 cells per well and volume was 120 μl. At the end of the 72-hour incubation, 40 μl of XTT labeling mixture (50:1 solution of sodium 3′-[1-(phenylamino-carbonyl)-3,4-tetrazolium]-bis(4-methoxy-6-nitro) benzene sulfonic acid hydrate and Electron-coupling reagent: PMS (N-methyl dibenzopyrazine methyl sulfate) were added to each well of the plate. After an additional 2-6 hours of incubation at 37° C., the absorbance reading at 405 nm with background correction at 650 nm was measured with a spectrophotometer.
BCR-ABL Phospho-ELISA Assay
Cells (Ba/F3 cells transfected with WT BCR-ABL, other kinases, or T315I, Y253F, or other mutant forms of BCR-ABL) were grown in the absence of IL-3 at least ½ week before the assay. The day before assay, the cells were fed with fresh media so that at the time of assay the cells were in log phase. Ba/F3 cells that had been grown in the absence of IL-3 for at least ½ week were resuspended in RPMI 1640 so that each well of a 96-well plate would contain approximately 200,000 cells. Cells were distributed in a 96-well plate containing serially diluted concentrations of test compounds. Cells were typically incubated with or without test compounds for 60-120 minutes at 5% CO2, 37° C. The incubation was performed with or without other additives such as 10% FCS or 50% human plasma. After incubation of compounds, lysis buffer was added and incubated for 10-15 minutes; the lysate was cleared by centrifugation.
To make the ELISA plate, commercially available Anti-ABL antibodies (e.g. (Ab-3, Calbiochem OP20) were prepared at a concentration of 0.125 μg/ml in coating buffer (0.1M Na-carbonate, pH 9.5), and plated at 10 ml per plate ([…] 100 μg/ml Ab/10 ml). In a high binding multi-well plate, 100 μl Ab in coating buffer were added to each well, and each plate was covered with a plate seal and incubated overnight at 4° C.
Excess antibody was removed and the ELISA plate was washed 3-4 times with 200 μl of wash buffer (0.05% Tween in PBS, pH 7.4). 150 μl of lysate (see above) were transferred to the ELISA plate. Plates were sealed and incubated 2 hours at room temperature. The detection antibody (e.g. HRP conjugated anti-pTyr or unconjugated α-p-Y 4G10, Upstate) was prepared in assay diluent. The antibody was diluted 1:1000 (stock=2 μg/μl, 200 μg in 100 μl; f.c.=2 μg/ml) in assay diluent and 10 ml of diluted antibody per plate were added. The lysate was removed from the ELISA plates, and wells were washed four times with 200 μl of wash buffer per well. 100 μl of detection antibody was added to each well; the plate was covered, and incubated 1 hr at room temperature (21° C.). Excess detection antibody was removed from the ELISA plates, and the wells were washed four times with 200 μl of wash buffer per well.
If necessary, (i.e. for unconjugated anti-pTyr antibody) secondary antibody (goat anti-rabbit HRP) was diluted 1:3000 in assay diluent (3.33 μl per 10 ml diluent) and added at 10 ml of diluted antibody per plate. Excess secondary antibody was removed from the ELISA plate, and the plate was washed four times with 200 μl per well of wash buffer.
Substrate Reagent A and Substrate Reagent B (Pierce Cat#37070 SuperSignal ELISA Pico Chemiluminescent Substrate) were added immediately before use (10 ml resultant solution per plate). 100 μl substrate were added per well, mixed for 1 minute, and chemiluminescent signal was measured with a luminometer.

Structure (SMILES)	IC50 [nM]
COc1ccccc1-c1n[nH]c2ncc(-c3cccc(S(=O)(=O)NC4CC4)c3)cc12	< 1000
COc1ccccc1-c1n[nH]c2ncc(-c3ccc(C(=O)NC4CC4)cc3)cc12	< 1000
c1ccc(-c2n[nH]c3ncc(-c4cccnc4)cc23)cc1	> 10000
COc1ccccc1-c1n[nH]c2ncc(-c3cccc(C(=O)N4CCN(C)CC4)c3)cc12	< 1000
CCN1CCN(C(=O)c2cccc(-c3cnc4[nH]nc(-c5cc(F)ccc5OC)c4c3)c2)CC1	< 1000
COc1ccccc1-c1n[nH]c2ncc(-c3ccc(O)c(C(=O)N4CCOCC4)c3)cc12	< 1000
COc1ccccc1-c1n[nH]c2ncc(-c3ccc(C(=O)N4CCOCC4)cc3)cc12	1000 to 10000
Oc1cccc(-c2cnc3[nH]nc(-c4ccccc4)c3c2)c1	< 1000
COc1cc(-c2cnc3[nH]cc(-c4ccc(C)cc4)c3n2)ccc1O	< 1000
COc1ccccc1-c1n[nH]c2ncc(Br)cc12	1000 to 10000
COc1ccccc1-c1n[nH]c2ncc(-c3cccc(C(=O)N4CCCC4)c3)cc12	< 1000
COc1ccccc1-c1n[nH]c2ncc(-c3cccc(C(=O)N4CCN(CCN(C)C)CC4)c3)cc12	< 1000
COc1ccccc1-c1n[nH]c2ncc(-c3ccc(C(=O)N4CCCC4)cc3)cc12	1000 to 10000
COc1cc(-c2cnc3[nH]nc(-c4ccccc4)c3c2)ccc1O	1000 to 10000
COc1ccccc1-c1n[nH]c2ncc(-c3cccc(C(=O)N4CCC(CO)CC4)c3)cc12	< 1000
COc1ccccc1-c1n[nH]c2ncc(-c3cccc(C(=O)N(C)C)c3)cc12	< 1000
COc1ccccc1-c1n[nH]c2ncc(-c3ccc(C(=O)N4CCN(C)CC4)cc3)cc12	< 1000
c1ccc(-c2n[nH]c3ncc(-c4ccc5[nH]ccc5c4)cc23)cc1	1000 to 10000
COc1ccccc1-c1n[nH]c2ncc(-c3cccc(C(=O)NC(C)C)c3)cc12	1000 to 10000
COc1ccccc1-c1n[nH]c2ncc(-c3cccnc3)cc12	1000 to 10000
COc1ccccc1-c1n[nH]c2ncc(-c3cnc4[nH]n(C)c(=O)c4c3)cc12	1000 to 10000
COc1ccccc1-c1cnc2[nH]nc(-c3ccccc3OC)c2c1	1000 to 10000
COc1ccccc1-c1c[nH]c2ncc(-c3cccc(C(=O)N(C)C)c3)nc12	> 10000

Second part, the compound after the results:

IC50 [nM]	Structure (SMILES)
1000 to 10000	O=C(c1cccc(-c2cnc3[nH]nc(-c4ccncc4Cl)c3c2)c1)N1CCOCC1
< 1000	O=C(c1cccc(-c2cnc3[nH]nc(-c4cccc5cccnc45)c3c2)c1)N1CCOCC1
< 1000	CCc1ccccc1-c1n[nH]c2ncc(-c3cccc(C(=O)N4CCOCC4)c3)cc12
1000 to 10000	CCOc1ccccc1-c1n[nH]c2ncc(-c3cccc(C(=O)N4CCOCC4)c3)cc12
< 1000	COc1c(F)cccc1-c1n[nH]c2ncc(-c3cccc(C(=O)N4CCOCC4)c3)cc12
1000 to 10000	Cc1cc(F)ccc1-c1n[nH]c2ncc(-c3cccc(C(=O)N4CCOCC4)c3)cc12
1000 to 10000	Cn1ccc2cc(-c3n[nH]c4ncc(-c5cccc(C(=O)N6CCOCC6)c5)cc34)ccc21
1000 to 10000	COc1ncc(-c2n[nH]c3ncc(-c4cccc(C(=O)N5CCOCC5)c4)cc23)c(OC)n1
< 1000	Cc1ccsc1-c1n[nH]c2ncc(-c3cccc(C(=O)N4CCOCC4)c3)cc12
1000 to 10000	O=C(c1cccc(-c2cnc3[nH]nc(-c4ccc5cc[nH]c5c4)c3c2)c1)N1CCOCC1
